# Read-outs that look alike come from different tables or passages of the source.
# Key:
# Assay type in all cases: cell-based
# [1] = tested on: Enterobacteriaceae; test: organism not typed
# [2] = tested on: E. coli (WT); test: microbe, parasite or virus in culture; details: for MIC90: Escherichia coli
# [3] = tested on: E. coli (ESBL); test: microbe, parasite or virus in culture; details: Escherichia coli
# [4] = tested on: Klebsiella spp. (WT); test: microbe, parasite or virus in culture
# [5] = tested on: Klebsiella spp. (ESBL); test: microbe, parasite or virus in culture; details: Klebsiella
# [6] = tested on: Klebsiella spp. (KPC); test: microbe, parasite or virus in culture; details: Klebsiella
# [7] = tested on: Enterobacter aerogenes (WT); test: microbe, parasite or virus in culture; details: for MIC90: Klebsiella aerogenes
# [8] = tested on: Enterobacter aerogenes (AmpC); test: microbe, parasite or virus in culture; details: Klebsiella aerogenes
# [9] = tested on: Enterobacter cloacae (WT); test: microbe, parasite or virus in culture; details: 202 isolates, read-out: MIC90
# [10] = tested on: Enterobacter cloacae (AmpC); test: microbe, parasite or virus in culture; details: Enterobacter cloacae
# [11] = tested on: Citrobacter freundii (AmpC); test: microbe, parasite or virus in culture; details: Citrobacter freundii
# [12] = tested on: Morganella morganii (AmpC); test: microbe, parasite or virus in culture; details: Morganella morganii
# [13] = tested on: Proteus mirabilis (WT); test: microbe, parasite or virus in culture
# [14] = tested on: Proteus vulgaris (WT); test: microbe, parasite or virus in culture
# [15] = tested on: Providencia spp.(all); test: microbe, parasite or virus in culture
# [16] = tested on: S. marcescens (AmpC); test: microbe, parasite or virus in culture; details: Serratia marcescens
# [17] = tested on: P. aeruginosa; test: In vitro activity against P. aeruginosa clinical isolates
# Method: GSK2251052 was tested for activity against P. aeruginosa, and its activity was compared to other antibiotics of known activity. The results are shown below in Tables 2a and 2b. Of 2,008 clinical isolates tested (from 2009-2010 subjects, of which 40% were from North America) greater than 90% were susceptible to GSK2251052 based on a potential susceptible breakpoint of ≦4 μg/mL.
# [18] = tested on: E. coli ATCC 25922 wild type and mutants; test: MIC, wild type and GSK2251052 resistant mutants; details: Escherichia coli
# Method: (§1) Spontaneous Resistance Frequency was determined in vitro for GSK2251052 and the resistance mutants in E. coli ATCC 25922, K. pneumoniae ATCC 13883, and P. aeruginosa ATCC 27853 strains were characterized. GSK2251052 was prepared as described in U.S. Pat. No. 7,816,344 (the entire contents of which are hereby incorporated by reference herein). LB broth, Mueller Hinton II broth (adjusted), and Difco noble agar were obtained from Becton Dickinson (Cockeysville, Md., USA). M9 minimal broth containing 1×M9 salt, 0.5 μg/ML thiamine, 1 mM MgSO4, 0.1 mM CaCl2, 2% glucose, was obtained from Teknova (Hollister, Calif., USA). Antibacterial agents ciprofloxacin, ceftazidime, chloramphenicol, gentamycin, kanamycin, polymixin B, tobramycin and trimethoprim, and amino acids were obtained from Sigma Chemicals (St. Louis, Mo., USA). Strains were obtained from ATCC (Manassas, Va., USA).
# (§2) Susceptibility tests were performed following the recommendations for aerobic bacteria (M7-A7) from the Clinical and Laboratories Standards Institute (CLSI).
# (§3) Laboratory generated mutants resistant to GSK2251052 contain mutations in the editing domain of LeuRS. Six to ten GSK2251052 resistant colonies of E. coli ATCC 25922, K. pneumoniae ATCC 13883 and P. aeruginosa ATCC 27853 were selected for further analysis and their MICs to GSK2251052 were determined (Table 4-7).
# [19] = tested on: K. pneumoniae ATCC 13883 wild type and mutants; test: MIC, wild type and GSK2251052 resistant mutants; details: Klebsiella pneumoniae
# Method: as §1, §2, §3
# [20] = tested on: P. aeruginosa ATCC 27853 wild type and mutants; test: MIC, wild type and GSK2251052 resistant mutants; details: Pseudomonas aeruginosa
# Method: as §1, §2, §3
# [21] = tested on: E. coli ATCC 25922, K. pneumoniae ATCC 13883 and P. aeruginosa ATCC 27853; test: MIC, three strains and their mutants summarised; details: MIC in E. coli, P. aeruginosa and K. pneumoniae mutants versus wild-type
# Method: as §1, §2, §3
# GSK2251052 resistant mutants were not cross-resistant to commercial antibiotics.
# [22] = ATCC25922, E wt, read-out: MICs
# [23] = ATCC25922, read-out: MICs, mutant E 101
# [24] = ATCC25922, read-out: MICs, mutant E 102
# [25] = ATCC25922, read-out: MICs, mutant E 107
# [26] = ATCC13883, K wt., read-out: MICs
# [27] = ATCC13883, read-out: MICs, mutant K 104
# [28] = ATCC13883, read-out: MICs, mutant K 105
# [29] = ATCC13883, read-out: MICs, mutant K 107
# [30] = ATCC13883, read-out: MICs, mutant K 108
# [31] = ATCC13883, read-out: MICs, mutant K 110
# [32] = ATCC27853, P wt., read-out: MICs
# [33] = ATCC27853, read-out: MICs, mutant P 101
# [34] = ATCC27853, read-out: MICs, mutant P106
# [35] = ATCC27853, read-out: MICs, mutant P108
Structure (SMILES),MIC90 [3] [mg/L],MIC90 [5] [mg/L],MIC90 [6] [mg/L],MIC90 [8] [mg/L],MIC90 [11] [mg/L],MIC90 [12] [mg/L],MIC90 [16] [mg/L],"MIC [18, 22] [mg/L]","MIC [18, 23] [mg/L]","MIC [18, 24] [mg/L]","MIC [18, 25] [mg/L]","MIC [19, 26] [mg/L]","MIC [19, 27] [mg/L]","MIC [19, 28] [mg/L]","MIC [19, 29] [mg/L]","MIC [19, 30] [mg/L]","MIC [19, 31] [mg/L]","MIC [20, 32] [mg/L]","MIC [20, 33] [mg/L]","MIC [20, 34] [mg/L]",further results
C[C@@H](O)[C@H]1C(=O)N2C(C(=O)O)=C(SCCN=CN)C[C@H]12 [Imipenem],0.5,0.5,64,2,1,4,2,,,,,,,,,,,,,,MIC90 [1]: 2 mg/L; susceptibility category of MIC90 [1]: **2; susceptibility category of MIC90 [2]: *0.25; MIC90 [2]: 0.25 mg/L; susceptibility category of MIC90 [4]: *0.25; MIC90 ([4]; Klebsiella): 0.25 mg/L; susceptibility category of MIC90 [7]: **2; MIC90 [7]: 2 mg/L; MIC90 [9]: 1 mg/L; MIC90 [10]: 1 mg/L; susceptibility category of MIC90 [13]: ***4; MIC90 ([13]; Proteus mirabilis): 4 mg/L; susceptibility category of MIC90 [14]: ***4; MIC90 ([14]; Proteus vulgaris): 4 mg/L; susceptibility category of MIC90 [15]: **2; MIC90 ([15]; Providencia): 2 mg/L; % susceptible [17]: 72.9%
O=C(N[C@H](CO)[C@H](O)c1ccc([N+](=O)[O-])cc1)C(Cl)Cl [Chloramphenicol],,,,,,,,8,8,8,8,4,8,8,8,8,8,> 64,> 64,> 64,"MIC [20, 35]: > 64 mg/L; cross-resistance of GSK2251052 resistant mutants [21]: did not have any significant difference in MIC values than wild-type"
CO/N=C(\C(=O)N[C@@H]1C(=O)N2C(C(=O)[O-])=C(C[N+]3(C)CCCC3)CS[C@H]12)c1csc(N)n1 [Cefepime],> 32,> 32,> 32,8,16,> 32,8,,,,,,,,,,,,,,"MIC90 ([1]; Enterobacteriaceae, 2029 isolates, read-out: MIC90): 4 mg/L; MIC90 ([2]; E. coli (WT), 214 isolates, read-out: MIC90): ≤ 1 mg/L; MIC90 ([4]; Klebsiella spp. (WT), 159 isolates, read-out: MIC90): ≤ 1 mg/L; MIC90 ([7]; Enterobacter aerogenes (WT), 199 isolates, read-out: MIC90): ≤ 1 mg/L; MIC90 ([13]; Proteus mirabilis (WT), 235 isolates, read-out: MIC90): ≤ 1 mg/L; MIC90 ([14]; Proteus vulgaris (WT), 41 isolates, read-out: MIC90): ≤ 1 mg/L; MIC90 ([15]; Providencia spp.(all), 68 isolates, read-out: MIC90): > 32 mg/L; % susceptible ([17]; P. aeruginosa, 2,008 clinical isolates, GSK2251052 based on potential susceptible breakpoint of ≦4 μg/mL): 75.3%"
COc1cc(Cc2cnc(N)nc2N)cc(OC)c1OC [Trimethoprim],,,,,,,,0.5,1,0.5,1,1,1,1,1,1,1,> 64,> 64,> 64,"MIC [20, 35]: > 64 mg/L; cross-resistance of GSK2251052 resistant mutants [21]: did not have any significant difference in MIC values than wild-type"

# Source: patent US9889146B2, “Benzoxaborole compounds and uses thereof” (priority 2012, dated 2018)
